Key:
mice of ddK strain = experiment: KCN anoxia test; assay type: in vivo
[1] = system: cerebral glucose uptake and oxidation of succinic acid in mitochondria; details: cited from earlier work
[2] = system: sensitized bronchial muscle; experiment: Antiallergic action: inhibition of egg albumin-induced contraction of sensitized guinea pig bronchial muscle; assay type: tissue-based, guinea pigs of Hartley strain; details: Cavia porcellus
Experimental: Male guinea pigs of Hartley strain (body weight: about 250 g) were intraperitoneally or intramuscularly dosed with egg albumin (dose 100 mg/kg) and the same procedure was repeated after 3 days. After 3 to 4 weeks, the guinea pi-as were bled to death and the sensitized bronchial muscle was excised and cut into 1.5 mm thick rings. Three rings were joined to prepare a specimen. The specimen was suspended in a tissue bath and a load of 1 g was applied. […] After stabilization of the specimen (after about 1 hour), histamine hydrochloride was added to the bath at a final concentration of 10^-5 M. The contraction curve was recorded. After the contraction had been stabilized, the specimen was washed with 3 portions of Ringer's solution at 10-minute intervals to stabilize the contraction (about 1 hour was required). Then, the test compound was added to the tissue bath and, after an interval of 10 minutes, 5 mg/ml of egg albumin was added. The contraction amplitude of the specimen was measured and the percent inhibition was calculated according to the following formula. [formula] A: Contraction amplitude of control group when egg albumin is added A': Contraction amplitude of dosage group when egg albumin is added
H: Contraction amplitude of control group when histamine hydrochloride is added
H': Contraction amplitude of dosage group when histamine hydrochloride is added

Acute toxicity (LD50) = details: mouse, in vivo; male ddK mice, 20-23 g, 10 animals per group, oral
Source text: Toxicity studies also made it clear that the terpene amino alcohols according to the present invention are of low toxicity.

Molecule | Survival rate (%) (mice of ddK strain; 3 mg/kg i.p., KCN 2.65 mg/kg i.v. after 30 minutes, 180 seconds, control 0) | Number of survivals/Number of mice used (mice of ddK strain; 3 mg/kg i.p., KCN 2.65 mg/kg i.v. after 30 minutes, 180 seconds, control 0/8) | anti-anoxic action (in words) (mice of ddK strain; KCN anoxia test) | reported cerebral actions (in words) [1] | inhibition at 10 µM ([2]; 10^-5 M) [%] | inhibition at 1 µM ([2]; 10^-6 M) [%] | inhibition at 0.1 µM ([2]; 10^-7 M) [%] | inhibition at 0.01 µM ([2]; 10^-8 M) [%] | LD50 (Acute toxicity (LD50)) [mg/kg]
dihydroergotoxine mesilate [reference compound] | 10.0 | 1/10 | not sufficiently remarkable | promotes cerebral glucose uptake and oxidation of succinic acid in mitochondria and increases the cerebral blood flow | – | – | – | – | –
CC(C)CCCC(C)CCCC(C)CCCC(C)(O)C(O)CN(C)C (stereo not drawn) [Compound (32)] | – | – | – | – | 40 | 61.1 | 25 | 10 | 3880
